{
  "source": "patent US20040116451A1",
  "about": "“Method of treatment” (Pfizer Inc., priority 2002, published 2004)",
  "test_system": "men with lower urinary tract symptoms",
  "experiment": "12-Week double-blind study in men with lower urinary tract symptoms (IPSS and bladder diary)",
  "format": "in vivo",
  "conditions": "for improvement in IPSS irritative domain: subjects with baseline IPSS irritative domain score ≧β; for improvement in IPSS irritative domain / improvement in irritative LUTS (urgency, daytime micturition frequency, nocturia; bladder diary): controlled release formulation, 12 weeks; for improvement in irritative LUTS (urgency, daytime micturition frequency, nocturia; bladder diary): subjects with irritative LUTS at baseline, compared with placebo",
  "experimental": "A 12-Week Study in men with lower urinary tract symptoms was undertaken in which the IPSS (International Prostate Symptom Score) was recorded at baseline during, and at the end of, double-blind treatment. The IPSS is composed of seven questions, each with potential responses of 0-5 on a Likert scale. These questions are grouped into two validated domains: the irritative domain (urgency, frequency and nocturia) and the obstructive domain (incomplete emptying, intermittency, weak stream and straining to begin). […] The average daily incidence of urgency, daytime micturition frequency and nocturia (the irritative symptoms) for each subject were derived from this diary. In this study, there were […] treatment groups: 6 mg fixed dose of 4-amino-6,7-dimethoxy-2-(5-methanesulfonamido-1,2,3,4-tetrahydroisoquinol-2-yl)-5-(2-pyridyl)quinazoline, 6 mg escalated to 12 mg at Week 4 of the compound, and placebo. Controlled release formulations according to International Application Publication No. WO 03/032956 were used in each case.",
  "key": {"[1]": {"conditions": "12 mg dose escalation group (6 mg escalated to 12 mg at Week 4)"}},
  "data": [
    {"compound": "COc1cc2nc(N3CCc4c(cccc4NS(C)(=O)=O)C3)nc(N)c2c(-c2ccccn2)c1OC", "note": "[4-amino-6,7-dimethoxy-2-(5-methanesulfonamido-1,2,3,4-tetrahydroisoquinol-2-yl)-5-(2-pyridyl)quinazoline]", "values": [
      {"measurement": "attenuation of irritative LUTS (overall study result, FIGS. 1 to 4)", "setting": "12-week study in men with LUTS, controlled release formulations", "result": "clinically significant attenuation of irritative LUTS"},
      {"measurement": "improvement in IPSS irritative domain", "setting": "6 mg fixed dose group", "result": "improvement in this domain of the IPSS was similarly confirmed"},
      {"measurement": "improvement in IPSS irritative domain", "setting": "[1]", "result": "improvement in this domain of the IPSS was similarly confirmed"},
      {"measurement": "improvement in irritative LUTS (urgency, daytime micturition frequency, nocturia; bladder diary)", "setting": "6 mg fixed dose group", "result": "improvement in these symptoms was confirmed"},
      {"measurement": "improvement in irritative LUTS (urgency, daytime micturition frequency, nocturia; bladder diary)", "setting": "[1]", "result": "improvement in these symptoms was confirmed"}
    ]}
  ]
}
